The structures appear in SMILES notation. Where two headings read alike, the source gives them in different places. Starred links: 1 amine or outer side, 2 acyl side, 3 side chain; linkers in the order of their positions; H or OH if unused. Non-standard residues stand in square brackets, D forms with d. Residues, ends and D or L forms follow the SMILES beside them. Groups on a side chain read outwards from the residue. *: point of attachment. C20 diacid = O=C(O)CCCCCCCCCCCCCCCCCCC(=O)*; γGlu = O=C(O)[C@H](CCC(=O)[*:2])N[*:1]; Hyp = O=C(O)[C@@H]1C[C@@H](O)CN1; NMeI = CC[C@H](C)[C@H](NC)C(=O)O; Nle = CCCC[C@H](N)C(=O)O; AEEA = NCCOCCOCC(=O)O; Aib = CC(C)(N)C(=O)O

One experiment concerns the target T1, hCRHR2 (Homo sapiens, UniProt Q13324).
T1 sequence (Q13324 1-411): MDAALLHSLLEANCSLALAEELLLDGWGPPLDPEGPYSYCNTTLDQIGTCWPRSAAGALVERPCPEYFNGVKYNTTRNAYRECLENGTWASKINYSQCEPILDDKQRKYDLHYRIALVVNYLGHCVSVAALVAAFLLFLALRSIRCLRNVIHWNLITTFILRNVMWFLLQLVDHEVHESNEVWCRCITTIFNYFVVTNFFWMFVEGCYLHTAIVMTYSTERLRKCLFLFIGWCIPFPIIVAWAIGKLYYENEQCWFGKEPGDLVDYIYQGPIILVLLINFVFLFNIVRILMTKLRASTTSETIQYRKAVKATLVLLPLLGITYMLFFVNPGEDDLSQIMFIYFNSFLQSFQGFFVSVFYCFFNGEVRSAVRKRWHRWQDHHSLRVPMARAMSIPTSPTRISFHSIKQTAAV
Kind of experiment: HTRF cAMP assay, determination of hCRHR2 potency (peptide libraries 5 conc., purified peptides 11 conc.). The experiment is classed as cell-based. From the text:
HTRF (CisBio) cAMP assay: The assay technology has thoroughly been described in the CisBio HTRF cAMP assay Kit manual (# 62AM4PEC). Briefly, time resolved fluorescence technic was applied to measure cAMP. This technic is based on a competitive immunoassay using cryptate-labelled anti-cAMP antibody and d2-labeled cAMP. In the absence of cellular cAMP, the anti-cAMP cryptate conjugate may get into proximity to cAMP-d2 conjugate and energy (FRET) can be transferred from cryptate to d2.
CHO-K1 cells stably expressing the human corticotropin-releasing hormone receptor 2 (Eurofins/DiscoverX, Cat #95-0048C2 hCRHR2 stable monoclonal cell lines) were used as cells in suspension, brought to life from frozen cell stocks immediately before assay performance.
Concentration-response evaluation of compounds was performed with 5 concentrations of agonist peptides and EC50 values were calculated by nonlinear regression using sigmoid concentration-response with variable slope.
Concentration-response evaluation of compounds was performed with 11 concentrations of agonist peptides and EC50 values were calculated by nonlinear regression using sigmoid concentration-response with variable slope.

The target in a further experiment is T2, hCRHR1 (Homo sapiens, UniProt P34998).
T2 sequence (P34998 24-415): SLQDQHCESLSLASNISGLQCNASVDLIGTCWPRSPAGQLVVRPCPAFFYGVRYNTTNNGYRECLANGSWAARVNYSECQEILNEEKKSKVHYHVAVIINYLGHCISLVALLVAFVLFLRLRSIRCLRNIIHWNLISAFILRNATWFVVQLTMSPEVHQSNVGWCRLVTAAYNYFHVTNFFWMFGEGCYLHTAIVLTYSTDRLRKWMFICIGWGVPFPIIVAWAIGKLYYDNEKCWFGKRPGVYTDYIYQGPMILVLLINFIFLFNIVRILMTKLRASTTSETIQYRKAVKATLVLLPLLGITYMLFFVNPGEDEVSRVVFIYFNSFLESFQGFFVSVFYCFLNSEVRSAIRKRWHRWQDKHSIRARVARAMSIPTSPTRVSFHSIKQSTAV
Kind of experiment: HTRF cAMP assay, determination of hCRHR1 potency (peptide libraries 5 conc., purified peptides 11 conc.). The experiment is classed as cell-based. From the text: HTRF (CisBio) cAMP assay: The assay technology has thoroughly been described in the CisBio HTRF cAMP assay Kit manual (# 62AM4PEC). Briefly, time resolved fluorescence technic was applied to measure cAMP. This technic is based on a competitive immunoassay using cryptate-labelled anti-cAMP antibody and d2-labeled cAMP. In the absence of cellular cAMP, the anti-cAMP cryptate conjugate may get into proximity to cAMP-d2 conjugate and energy (FRET) can be transferred from cryptate to d2. CHO-K1 cells stably expressing the human corticotropin-releasing hormone receptor 1 (Eurofins/DiscoverX Cat #95-0047C2 hCRHR1 stable monoclonal cell lines) were used as cells in suspension, brought to life from frozen cell stocks immediately before assay performance. […] Concentration-response evaluation of compounds was performed with 5 concentrations of agonist peptides and EC50 values were calculated by nonlinear regression using sigmoid concentration-response with variable slope. Concentration-response evaluation of compounds was performed with 11 concentrations of agonist peptides and EC50 values were calculated by nonlinear regression using sigmoid concentration-response with variable slope.

Setting [1] is: library peptides, matched molecular pairs L vs Nle in position X^38, read-out: Potency hCRHR2 pEC50 (converted).
Setting [2] is: library peptides, matched molecular pairs L vs Nle in position X^38, read-out: Potency hCRHR1 pEC50 (converted).

`CCCC[C@H](NC(=O)[C@@H](NC(=O)[C@H](CCC(=O)O)NC(=O)C(C)(C)NC(=O)[C@H](CC(N)=O)NC(=O)[C@@H](NC(=O)[C@H](CCCCNC(=O)COCCOCCNC(=O)COCCOCCNC(=O)CC[C@H](NC(=O)CC[C@H](NC(=O)CCCCCCCCCCCCCCCCCCC(=O)O)C(=O)O)C(=O)O)NC(=O)[C@H](C)NC(=O)[C@H](CCC(N)=O)NC(=O)[C@H](CCC(=O)O)NC(=O)[C@H](CCCNC(=N)N)NC(=O)[C@H](C)NC(=O)[C@H](C)NC(=O)[C@H](CCCNC(=N)N)NC(=O)[C@H](C)NC(=O)[C@H](CCCNC(=N)N)NC(=O)[C@H](C)NC(=O)[C@H](CCC(N)=O)NC(=O)[C@H](Cc1c[nH]cn1)NC(=O)[C@H](CC(C)C)NC(=O)[C@H](CC(C)C)NC(=O)[C@@H](NC(=O)[C@H](CCC(N)=O)NC(=O)[C@H](CC(C)C)NC(=O)[C@H](CC(C)C)NC(=O)CNC(=O)[C@@H](NC(=O)[C@@H]1CCCN1C(=O)[C@@H](NC(=O)[C@H](CC(=O)O)NC(=O)[C@H](CC(C)C)NC(=O)[C@H](CO)NC(=O)[C@H](CC(C)C)NC(=O)[C@@H](NC(=O)[C@@H](NC)[C@@H](C)CC)C(C)C)C(C)C)[C@@H](C)CC)[C@@H](C)CC)[C@@H](C)O)[C@@H](C)CC)C(=O)N[C@@H](C)C(=O)N[C@@H](CCC(=O)O)C(=O)N[C@H](C(N)=O)C(C)C` [compound 207] (H-[NMeI]VLSLDVPIGLLQILLHQARARAAREQAK([AEEA-AEEA-γGlu-γGlu-C20 diacid])TN[Aib]EI[Nle]AEV-NH2): the EC50 is 0.0398 nM on hCRHR2 (Table 4, library peptides having X^38 = Nle, read-out: hCRHR2 pEC50 (converted)) and 1000 nM on hCRHR1 (Table 4, library peptides having X^38 = Nle, read-out: hCRHR1 pEC50 (converted)).
Regarding `CCCC[C@H](NC(=O)[C@@H](NC(=O)[C@H](CCC(=O)O)NC(=O)[C@H](C)NC(=O)[C@H](CC(N)=O)NC(=O)[C@@H](NC(=O)[C@H](CCCCNC(=O)COCCOCCNC(=O)COCCOCCNC(=O)CC[C@H](NC(=O)CC[C@H](NC(=O)CCCCCCCCCCCCCCCCCCC(=O)O)C(=O)O)C(=O)O)NC(=O)[C@H](C)NC(=O)[C@H](CCC(=O)O)NC(=O)[C@H](CCC(=O)O)NC(=O)[C@H](CCCNC(=N)N)NC(=O)[C@H](CCC(N)=O)NC(=O)[C@H](CO)NC(=O)[C@H](CCCNC(=N)N)NC(=O)[C@H](C)NC(=O)[C@H](CCCNC(=N)N)NC(=O)[C@H](C)NC(=O)[C@H](CCC(N)=O)NC(=O)[C@H](CCC(=O)O)NC(=O)[C@H](CC(C)C)NC(=O)[C@H](CC(C)C)NC(=O)[C@@H](NC(=O)[C@H](CCC(N)=O)NC(=O)[C@H](CC(C)C)NC(=O)[C@H](CC(C)C)NC(=O)CNC(=O)[C@@H](NC(=O)[C@@H]1CCCN1C(=O)[C@@H](NC(=O)[C@H](CC(=O)O)NC(=O)[C@H](CC(C)C)NC(=O)[C@H](CO)NC(=O)[C@H](CC(C)C)NC(=O)[C@@H](NC(=O)[C@@H](N)[C@@H](C)CC)C(C)C)C(C)C)[C@@H](C)CC)[C@@H](C)CC)[C@@H](C)O)[C@@H](C)CC)C(=O)N[C@@H](C)C(=O)N[C@@H](CCC(=O)O)C(=O)N[C@H](C(N)=O)C(C)C` [compound 71] (H-IVLSLDVPIGLLQILLEQARARSQREEAK([AEEA-AEEA-γGlu-γGlu-C20 diacid])TNAEI[Nle]AEV-NH2), the EC50 at hCRHR2 (setting [1]) is 0.631 nM; on hCRHR1 (setting [2]), 100000 nM.
The corresponding values for `CCCC[C@H](NC(=O)[C@@H](NC(=O)[C@H](CCC(=O)O)NC(=O)[C@H](C)NC(=O)[C@H](CC(N)=O)NC(=O)[C@@H](NC(=O)[C@H](CCCCNC(=O)COCCOCCNC(=O)COCCOCCNC(=O)CC[C@H](NC(=O)CC[C@H](NC(=O)CCCCCCCCCCCCCCCCCCC(=O)O)C(=O)O)C(=O)O)NC(=O)[C@H](C)NC(=O)[C@H](CCC(N)=O)NC(=O)[C@H](CCC(=O)O)NC(=O)[C@H](CCCNC(=N)N)NC(=O)[C@H](C)NC(=O)[C@@H](NC(=O)[C@H](CCCNC(=N)N)NC(=O)[C@H](C)NC(=O)[C@H](CCCNC(=N)N)NC(=O)[C@H](C)NC(=O)[C@H](CCC(N)=O)NC(=O)[C@H](CCC(=O)O)NC(=O)[C@H](CC(C)C)NC(=O)[C@H](CC(C)C)NC(=O)[C@@H](NC(=O)[C@H](CCC(N)=O)NC(=O)[C@H](CC(C)C)NC(=O)[C@H](CC(C)C)NC(=O)CNC(=O)[C@@H](NC(=O)[C@@H]1C[C@@H](O)CN1C(=O)[C@@H](NC(=O)[C@H](CC(=O)O)NC(=O)[C@H](CC(C)C)NC(=O)[C@H](CO)NC(=O)[C@H](CC(C)C)NC(=O)[C@@H](NC(=O)[C@@H](N)[C@@H](C)CC)C(C)C)C(C)C)[C@@H](C)CC)[C@@H](C)CC)C(C)C)[C@@H](C)O)[C@@H](C)CC)C(=O)N[C@@H](C)C(=O)N[C@@H](CCC(=O)O)C(=O)N[C@H](C(N)=O)C(C)C` [compound 85] (H-IVLSLDV[Hyp]IGLLQILLEQARARVAREQAK([AEEA-AEEA-γGlu-γGlu-C20 diacid])TNAEI[Nle]AEV-NH2) are 0.251 nM and 2 nM.
For the compound `CCCC[C@H](NC(=O)[C@@H](NC(=O)[C@H](CCC(=O)O)NC(=O)[C@H](C)NC(=O)[C@H](CC(N)=O)NC(=O)[C@@H](NC(=O)[C@H](CCCCNC(=O)COCCOCCNC(=O)COCCOCCNC(=O)CC[C@H](NC(=O)CC[C@H](NC(=O)CCCCCCCCCCCCCCCCCCC(=O)O)C(=O)O)C(=O)O)NC(=O)[C@H](C)NC(=O)[C@H](CCC(N)=O)NC(=O)[C@H](CCC(=O)O)NC(=O)[C@H](CCCNC(=N)N)NC(=O)[C@H](C)NC(=O)[C@H](CO)NC(=O)[C@H](CCC(=O)O)NC(=O)[C@H](C)NC(=O)[C@H](CCCNC(=N)N)NC(=O)[C@H](C)NC(=O)[C@H](CCC(N)=O)NC(=O)[C@H](CCC(=O)O)NC(=O)[C@H](CC(C)C)NC(=O)[C@H](CC(C)C)NC(=O)[C@@H](NC(=O)[C@H](CCC(N)=O)NC(=O)[C@H](CC(C)C)NC(=O)[C@H](CC(C)C)NC(=O)CNC(=O)[C@@H](NC(=O)[C@@H]1CCCN1C(=O)[C@@H](NC(=O)[C@H](CC(=O)O)NC(=O)[C@H](CC(C)C)NC(=O)[C@H](CO)NC(=O)[C@H](CC(C)C)NC(=O)[C@@H](NC(=O)[C@@H](N)[C@@H](C)CC)C(C)C)C(C)C)[C@@H](C)CC)[C@@H](C)CC)[C@@H](C)O)[C@@H](C)CC)C(=O)N[C@@H](C)C(=O)N[C@@H](CCC(=O)O)C(=O)N[C@H](C(N)=O)C(C)C` [SEQ ID NO: 42] (H-IVLSLDVPIGLLQILLEQARAESAREQAK([AEEA-AEEA-γGlu-γGlu-C20 diacid])TNAEI[Nle]AEV-NH2), the EC50 at hCRHR2 (Table 3, matched molecular pairs X^38 L vs Nle, peptide library of Example 4, read-out: hCRHR2 pEC50 (converted)) is 0.2 nM; on hCRHR1 (Table 3, matched molecular pairs X^38 L vs Nle, peptide library of Example 4, read-out: hCRHR1 pEC50 (converted)), 251 nM.

Source of the values: patent EP4810052A2, “HCRHR2 SELECTIVE POLYPEPTIDES” (Gubra A/S, priority 2023, dated 2026).
